In PMC9127657 (Bioorganic & medicinal chemistry, 2021):
pEC50: −log10 of the molar value.

What was measured:
Type in all cases: cell-based
[1] = tested on: HIV-1 NL4–3 Nanoluc-sec virus; conditions: for antiviral activity at the tested concentration: tested concentration 5 μg/mL, MT-4 cells
[2] = Cytotoxicity assay in MT-4 cells; conditions: human, uninfected MT-4 cells
MT-4 cells = test: Cytotoxicity assay in MT-4 cells; conditions: concentration required to reduce the viability of uninfected MT-4 cells by 50%; three days

Compound | antiviral activity at the tested concentration [1] | also measured
COc1ccc(N(C)C(=O)[C@H](Cc2ccccc2)NC(=O)c2cccc(S(=O)(=O)N3CCc4cc(OC)ccc43)c2)cc1 [Compound V-25e, (S)-3-((5-methoxyindolin-1-yl)sulfonyl)-N-(1-((4-methoxyphenyl) (methyl)amino)-1-oxo-3-phenylpropan-2-yl)benzamide] | loss of antiviral activity | 
COc1ccc(N(C)C(=O)[C@H](Cc2ccccc2)NC(=O)C(=O)Nc2ccc([N+](=O)[O-])cc2)cc1 [III-16f, (S)-N1-(1-((4-methoxyphenyl)(methyl)amino)-1-oxo-3-phenylpropan-2-yl)–N2-(4-nitrophenyl)oxalamide] |  | CC50 at 3 days [2]: > 10.2 µM
COc1ccc(N(C)C(=O)[C@H](Cc2ccccc2)NC(=O)c2cccc(S(=O)(=O)N3CCc4ccccc43)c2)cc1 [Compound V-25d, (S)-3-(indolin-1-ylsulfonyl)-N-(1-((4-methoxyphenyl)(methyl)amino)-1-oxo-3-phenylpropan-2-yl)benzamide] | loss of antiviral activity | 
(S)-2-((3-(2,3-dihydro-1H-pyrrolo[3,4-c]pyridine-2-carbonyl)phenyl) sulfonamido)-N-(4-methoxyphenyl)-N-methyl-3-phenylpropanamide [Compound I-10c] |  | pEC50 ([1]; concentration that inhibits HIV-1NL4–3 nanoluc-sec infection of MT-4 cells by 50%, three days): < 5.06; CC50 (MT-4 cells): > 8.76 µM
COc1ccc(N(C)C(=O)[C@H](Cc2ccccc2)NC(=O)c2cccc(S(=O)(=O)N3CCc4cc([N+](=O)[O-])ccc43)c2)cc1 [Compound V-25f, (S)-N-(1-((4-methoxyphenyl)(methyl)amino)-1-oxo-3-phenylpropan-2-yl)-3-((5-nitroindolin-1-yl)sulfonyl)benzamide] | loss of antiviral activity | 
COc1ccc(N(C)C(=O)[C@H](Cc2ccccc2)NC(=O)c2cccc(S(=O)(=O)Nc3ccc(C(F)(F)F)cc3)c2)cc1 [Compound V-25j, (S)-N-(1-((4-methoxyphenyl)(methyl)amino)-1-oxo-3-phenylpropan-2-yl)-3-(N-(4-(trifluoromethyl)phenyl)sulfamoyl)benzamide] | loss of antiviral activity | 
COc1ccc(N(C)C(=O)[C@H](Cc2ccccc2)NC(=O)c2cccc(S(=O)(=O)Nc3cc(F)cc(F)c3)c2)cc1 [V-25 h, (S)-3-(N-(3,5-difluorophenyl)sulfamoyl)-N-(1-((4-methoxyphenyl)(methyl)amino)-1-oxo-3-phenylpropan-2-yl)benzamide] | loss of antiviral activity | 
COc1ccc(N(C)C(=O)[C@H](Cc2ccccc2)NS(=O)(=O)CC(=O)n2ncc3ccccc32)cc1 [II-13f, (S)-2-((2-(1H-indazol-1-yl)-2-oxoethyl)sulfonamido)-N-(4-methoxyphenyl)-N-methyl-3-phenylpropeanamide] | lost their activity | 
COc1ccc(N(C)C(=O)[C@H](Cc2ccccc2)NS(=O)(=O)CC(=O)N2CCc3cc(OC)ccc32)cc1 [II-13d, (S)-2-((2-(5-methoxyindolin-1-yl)-2-oxoethyl)sulfonamido)-N-(4-methoxyphenyl)-N-methyl-3-phenylpropanamide] | lost their activity | 
COc1ccc(N(C)C(=O)[C@H](Cc2ccccc2)NS(=O)(=O)CC(=O)Nc2ccc3ncsc3c2)cc1 [II-13b, (S)-2-((2-(benzo[d]thiazol-6-ylamino)-2-oxoethyl)sulfonamido)-N-(4-methoxyphenyl)-N-methyl-3-phenylpropanamide] | lost their activity | 
COc1ccc(N(C)C(=O)[C@H](Cc2ccccc2)NS(=O)(=O)CC(=O)N2CCc3cc([N+](=O)[O-])ccc32)cc1 [II-13 g, (S)-N-(4-methoxyphenyl)-N-methyl-2-((2-(5-nitroindolin-1-yl)-2-oxoethyl)sulfonamido)-3-phenylpropanamide] | lost their activity | 
COc1ccc(N(C)C(=O)[C@H](Cc2ccccc2)NS(=O)(=O)CC(=O)Nc2cc(F)cc(F)c2)cc1 [II-13e, (S)-2-((2-((3,5-difluorophenyl)amino)-2-oxoethyl)sulfonamido)-N-(4-methoxyphenyl)-N-methyl-3-phenylpropanamide] | lost their activity | 
